Assays:
[1] = target: T1, prostate specific membrane antigen (PSMA) (Homo sapiens, UniProt Q04609); assay: radioligand uptake in LNCaP (PSMA-high) cells, competition by unlabeled compound; PC3 (PSMA-low) as control; assay type: cell-based
T1 construct: gene FOLH1

[2] = target: T1, prostate specific membrane antigen (PSMA); assay: radioligand uptake in LNCaP (PSMA-high) cells, competition by unlabeled PSMA-617; PC3 (PSMA-low) as control; assay type: cell-based

T1 sequence (Q04609 whole entry): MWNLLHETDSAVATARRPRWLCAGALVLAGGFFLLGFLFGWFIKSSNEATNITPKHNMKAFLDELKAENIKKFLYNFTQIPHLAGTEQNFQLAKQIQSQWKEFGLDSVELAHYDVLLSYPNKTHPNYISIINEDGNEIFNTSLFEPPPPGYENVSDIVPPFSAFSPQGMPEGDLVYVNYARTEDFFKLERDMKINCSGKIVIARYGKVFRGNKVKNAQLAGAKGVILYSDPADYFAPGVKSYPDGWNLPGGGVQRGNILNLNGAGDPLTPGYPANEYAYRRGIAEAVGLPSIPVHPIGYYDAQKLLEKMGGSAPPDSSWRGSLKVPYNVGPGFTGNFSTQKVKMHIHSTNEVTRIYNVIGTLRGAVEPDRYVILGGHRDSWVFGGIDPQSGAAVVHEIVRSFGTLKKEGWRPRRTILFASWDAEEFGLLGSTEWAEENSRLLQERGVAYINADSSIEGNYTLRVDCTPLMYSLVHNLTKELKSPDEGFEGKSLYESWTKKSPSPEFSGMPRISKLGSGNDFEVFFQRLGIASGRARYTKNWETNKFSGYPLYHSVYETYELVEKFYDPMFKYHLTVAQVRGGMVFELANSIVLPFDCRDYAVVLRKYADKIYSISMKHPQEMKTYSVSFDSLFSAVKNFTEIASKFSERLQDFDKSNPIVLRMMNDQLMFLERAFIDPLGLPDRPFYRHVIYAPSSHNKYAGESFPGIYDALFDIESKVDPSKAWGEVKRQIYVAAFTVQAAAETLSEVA

Compound `O=C(O)CC[C@H](NC(=O)N[C@@H](CCCCNC(=O)[C@@H](Cc1ccc2ccccc2c1)NC(=O)c1ccc(CNC(=O)[C@@H](CCC(=O)O)NC(=O)[C@@H](CCC(=O)O)NC(=O)Cc2ccc([211At])cc2)cc1)C(=O)O)C(=O)O` [211At-PSMA-5] has an IC50 [1] of 0.32 nM.
In the case of `O=C([O-])CN1CCN(CC(=O)[O-])CCN(CC(=O)NCC2CCC(C(=O)NC(Cc3ccc4ccccc4c3)C(=O)NCCCC[C@H](NC(=O)N[C@@H](CCC(=O)O)C(=O)O)C(=O)O)CC2)CCN(CC(=O)[O-])CC1.[225Ac+3]` (some centres unmarked) [225Ac-PSMA-617], the IC50 [2] is reported as 2.64 nM.

Reference: publication PMC10815831, “Comparison of Nuclear Medicine Therapeutics Targeting PSMA among Alpha-Emitting Nuclides” (International Journal of Molecular Sciences, 2024)
